Data from patent publication US8575167B2, “Spiro compounds having stearoyl-CoA desaturase action” (Takeda Pharmaceutical Company Limited, priority 2007, dated 2013).

Assays:
SCD = molecular target: T1, SCD (Rattus norvegicus, UniProt P07308); assay: Measurement of SCD inhibitory activity using microsome (TLC detection system); format: biochemical; conditions: rat liver microsome (20 μg), 15 min, [14C] stearoyl-CoA; test compound (10 mM) diluted to 3/1000 with 3× buffer, 10 μL in 30 μL reaction; read-out: SCD activity inhibitory rate (%)
T1 construct: an enzyme reaction using rat liver microsome (20 μg) was performed for 15 min; from tissue; host or cells: rat liver microsome fraction
T1 sequence (P07308 1-358): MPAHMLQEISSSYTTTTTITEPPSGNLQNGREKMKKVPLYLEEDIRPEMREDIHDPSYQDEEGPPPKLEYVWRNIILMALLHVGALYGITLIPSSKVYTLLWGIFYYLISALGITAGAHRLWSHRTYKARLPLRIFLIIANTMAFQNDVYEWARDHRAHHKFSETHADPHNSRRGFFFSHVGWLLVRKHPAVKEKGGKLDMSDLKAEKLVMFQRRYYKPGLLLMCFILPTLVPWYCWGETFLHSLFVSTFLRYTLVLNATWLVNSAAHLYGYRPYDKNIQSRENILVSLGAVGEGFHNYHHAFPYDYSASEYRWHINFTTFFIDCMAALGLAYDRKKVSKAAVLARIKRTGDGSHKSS
Protocol: (Test Method: Measurement of SCD Inhibitory Activity Using Microsome (TLC Detection System))
A test compound (10 mM) diluted with DMSO in advance was secondarily diluted to 3/1000 with 3× buffer (300 mmol/L NaH2PO4 [pH 7.4], 450 mM KCl, 30 mM NaF, 9 mM MgCl2, 4.5 mM glutathione [reduced form], 0.3% BSA [fatty acid free, SIGMA]). The test compound (10 μL) diluted with the assay buffer was dispensed to a PP 96-deep well block, and a microsome fraction (10 μL) diluted with a microsome buffer was added thereto. The enzyme reaction was started by the addition of 10 μL of [^14C] stearoyl-CoA (American Radiolabeled Chemicals [ARC], Inc.) diluted to 10 μCi/mL with 9 mmol/L NADH. For evaluation of the compound, an enzyme reaction using rat liver microsome (20 μg) was performed for 15 min. The reaction was quenched by the addition of 10 μL of 2.5N NaOH, a plate seal was applied, and the reaction mixture was incubated overnight in a dry heater set to 65° C. to allow saponification. Solvent extraction of fatty acid was based on the Bligh&Dyer method (1). Formic acid:methanol:chloroform (1:6:3) (200 μL) was added, the state of single layer was maintained, the mixture was sufficiently stirred, and pure water (120 μL) was added to allow separation into two layers. The lower chloroform layer (10 μL) was spotted on reversed-phase TLC plate (RP-18, 1154230001, Merck Japan, Ltd.) and developed with acetonitrile:pure water:acetic:acid (95:4.5:0.5). The TLC plate was dried and transferred onto an Imaging Plate (Fuji Photo Film Co., Ltd.) for not less than 5 hr. For detection, BAS-5000 (Fuji Photo Film Co., Ltd) was used and the obtained spot images were converted to numerical values using Multi Gauge Ver2.3 (Fuji Photo Film Co., Ltd), based on which the SCD activity inhibitory rate (%) was determined.

[1] = tested on: Diet-Induced Obesity (DIO) Model Mouse; assay: Antiobesity action on diet-induced obesity (DIO) model mouse: liver unsaturation index number (C18:1/C18:0); format: in vivo; conditions: liver C18:1/C18:0 ratio, 0.1 mg/kg body weight by gavage for 4 weeks, n=7
Source text: Male C57BL/6J mice (6-week-old) were purchased from CLEA Japan, Inc. The mice were divided into two groups, and a high fat diet (Research Diets, Inc.; solid D12451) was given to one group and a general feed for rearing and breeding (CLEA Japan, Inc.; solid CE-2) was given to the other group.
Each group was reared for 4 months under full feeding, and divided into a diet-induced obesity model group and a general feed group using the body weight and plasma triglyceride concentration as indices. […] of a 0.5% methylcellulose suspension of the compound of Example 15 (0.1 mg/kg body weight) was administered to each of the diet-induced obesity model group and the general feed group by gavage for 4 weeks (each group n=7). […] The body weight of each group was measured during the dosing period. […]
The liver total lipid sample extracted by the above-mentioned procedure was labeled using an ester type fatty acid labeling reagent (YMC). The labeled sample was dissolved in methanol (5 μL) and analyzed using YMC-Pack FA (6.0Φ×250 mm), CH3CN:H2O:0.1% TFA (850:150:2) as a mobile phase at a flow rate of 1.2 mL/min. The peak area of each fatty acid in the sample was determined as a C18:1/C18:0 ratio from the peak area of each standard product and used as an unsaturation index number which is an index of the enzyme activity of SCD. […]

`Cc1nsc(-c2ccc(N3CCC4(C3)OCc3ccccc34)nn2)n1` (stereo not shown) [Example 15, 1′-[6-(3-methyl-1,2,4-thiadiazol-5-yl)pyridazin-3-yl]-3H-spiro[2-benzofuran-1,3′-pyrrolidine]] was tested, and the inhibition at 10 µM (SCD) was 100%, the “unsaturation index number (mean ± SD)” value ([1]; diet-induced obesity model group) was 43.886 ± 2.0318 and the “unsaturation index number (mean ± SD)” value ([1]; general feed group) was 29.017 ± 1.2254.
For `Cc1nsc(-c2ccc(N3CCC4(CC3)CN(c3cccc(F)c3)C(=O)O4)nn2)n1` [Example 29, 3-(3-fluorophenyl)-8-[6-(3-methyl-1,2,4-thiadiazol-5-yl)pyridazin-3-yl]-1-oxa-3,8-diazaspiro[4.5]decan-2-one], the inhibition at 10 µM (SCD) was 99%.
